Source: patent US12673946B2, “Pyrimidin-4(3H)-one derivatives as TRPV4 antagonists” (RaQualia Pharma Inc., priority 2020, dated 2026)

Biological target: T1, human TRPV4 (Homo sapiens, UniProt Q9HBA0)
T1 construct: host or cells: tetracycline-inducible Flp-In T-REx 293 cells
Experiment: Hypotonicity-induced Ca2+ influx (Fluo-4, FDSS)
Assay type: cell-based
Method: Hypotonicity-Induced Ca^2+ Influx
TRPV4 channel activation/opening results in an influx of Ca^2+ (Liedtke, W. et al., 2000 (NPL 1)). The resulting changes in intracellular calcium are monitored using a Ca^2+ sensitive fluorescent dye Fluo-4 (Invitrogen). Dye loaded cells are treated with the test compounds for 5 minutes prior to the addition of a hypotonic solution and the inhibition of the hypotonicity-induced activation is recorded.
Forty microL of tetracycline-inducible Flp-In T-REx 293 cells (Invitrogen) stably expressing human TRPV4 are seeded onto the poly-D-lysine coated 384-well plate (Corning) at a density of 10,000 cells per well. The following day, TRPV4 expression is induced by adding 0.5 microg/mL tetracycline for 20-24 hours. On the day of the experiment, the media is removed and replaced with 40 microL of dye loading buffer [1 microM Fluo-4 AM (Invitrogen), 0.01% Pluronic F-127, and 20 mM HEPES in Hanks' balanced salt solutions (HBSS; Invitrogen)] and then the cells are incubated for 60 minutes at 25° C. Dye is then removed and replaced with 20 microL of assay buffer (20 mM HEPES in HBSS). Five minutes prior to the fluorescence measurement, 10 microL of test compound is added to the cells. Using the FDSS instrument (Hamamatsu Photonics), 30 microL of hypotonic solution (90 mM D-mannitol and 1.26 mM CaCl2 in ultrapure water) is added 30 seconds after the start of measurement. The calcium flux signal is recorded for a total of 4.5 minutes.

[1] = Flp-In T-REx 293 cells expressing human TRPV4, examples listed under heading 'Human IC50<50 nM'
[2] = Flp-In T-REx 293 cells stably expressing human TRPV4, compounds listed by potency bin (<10 nM Tables 96-1/96-2, <3 nM Table 97)

T1 sequence (Q9HBA0 whole entry): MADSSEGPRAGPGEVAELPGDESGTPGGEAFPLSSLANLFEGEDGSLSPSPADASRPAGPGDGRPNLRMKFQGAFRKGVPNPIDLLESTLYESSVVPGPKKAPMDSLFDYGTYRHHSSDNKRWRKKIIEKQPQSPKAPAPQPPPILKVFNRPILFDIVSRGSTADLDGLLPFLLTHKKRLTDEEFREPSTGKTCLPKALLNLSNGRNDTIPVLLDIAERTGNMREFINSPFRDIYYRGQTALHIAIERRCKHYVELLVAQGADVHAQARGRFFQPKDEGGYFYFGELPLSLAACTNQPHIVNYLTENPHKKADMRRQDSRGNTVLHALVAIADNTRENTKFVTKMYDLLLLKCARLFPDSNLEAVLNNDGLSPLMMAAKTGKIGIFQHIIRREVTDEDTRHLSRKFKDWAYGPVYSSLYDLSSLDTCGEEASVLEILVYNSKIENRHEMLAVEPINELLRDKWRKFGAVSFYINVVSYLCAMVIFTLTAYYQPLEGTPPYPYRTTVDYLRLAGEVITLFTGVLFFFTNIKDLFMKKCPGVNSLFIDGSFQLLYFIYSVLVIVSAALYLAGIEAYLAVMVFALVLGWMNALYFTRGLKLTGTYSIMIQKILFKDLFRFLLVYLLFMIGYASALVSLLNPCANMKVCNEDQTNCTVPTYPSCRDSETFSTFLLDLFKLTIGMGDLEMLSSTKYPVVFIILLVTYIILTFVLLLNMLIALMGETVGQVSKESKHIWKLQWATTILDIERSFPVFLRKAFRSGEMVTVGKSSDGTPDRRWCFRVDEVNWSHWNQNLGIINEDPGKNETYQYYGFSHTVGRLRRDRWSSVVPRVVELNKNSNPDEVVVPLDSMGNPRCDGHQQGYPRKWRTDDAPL

| Structure (SMILES) | IC50 [1] | IC50 [2] |
| --- | --- | --- |
| O=C(C(O)c1cccc(-c2cnc3ccccc3c2)c1)N1CCc2nc(C3(c4cccc(Cl)c4)CC3)[nH]c(=O)c2C1 (centres unmarked) [14-3] | < 50 nM | < 10 nM |
| O=C([C@H](O)c1cccc(Cl)c1)N1CCc2nc(C3(c4cccc(Oc5ccccc5)c4)CC3)[nH]c(=O)c2C1 [14-4] | < 50 nM | < 10 nM |
| O=C(C(O)c1cccc(-c2cccc(OC(F)(F)F)c2)c1)N1CCc2nc(C3(c4cccc(Cl)c4)CC3)[nH]c(=O)c2C1 (centres unmarked) [14-5] | < 50 nM | < 10 nM |
| O=C(C(O)c1cccc(-c2cccc(C(F)(F)F)c2)c1)N1CCc2nc(C3(c4cccc(F)c4)CC3)[nH]c(=O)c2C1 (centres unmarked) [14-6] | < 50 nM | < 10 nM |
| O=C(C(O)c1cccc(-c2cccc(OC(F)(F)F)c2)c1)N1CCc2nc(C3(c4cccc(F)c4)CC3)[nH]c(=O)c2C1 (centres unmarked) [14-7] | < 50 nM | < 10 nM |
| O=C(C(O)c1cccc(-c2cccc(C(F)(F)F)c2)c1)N1CCc2nc(C3(c4cccc(Cl)c4)CC3)[nH]c(=O)c2C1 (centres unmarked) [14-8] | < 50 nM | < 10 nM |
| O=C(C(O)c1cccc(-c2ccc(Cl)cc2)c1)N1CCc2nc(C3(c4cccc(Cl)c4)CC3)[nH]c(=O)c2C1 (centres unmarked) [14-9] | < 50 nM | < 10 nM |
| O=C([C@H](O)c1cccc(Cl)c1)N1CCc2nc(C3(c4cccc(-c5ccccc5)c4)CC3)[nH]c(=O)c2C1 [14-10] | < 50 nM | < 10 nM |
| CC(C)(C)c1cccc(C(O)C(=O)N2CCc3nc(C4(c5cccc(Cl)c5)CC4)[nH]c(=O)c3C2)c1 (centres unmarked) [14-11] | < 50 nM | < 10 nM |
| O=C(C(O)c1cccc(-c2cccc(F)c2)c1)N1CCc2nc(C3(c4cccc(Cl)c4)CC3)[nH]c(=O)c2C1 (centres unmarked) [14-12] | < 50 nM | < 10 nM |
| CC(C)c1cccc(C2(c3nc4c(c(=O)[nH]3)CN(C(=O)[C@H](O)c3cccc(Cl)c3)CC4)CC2)c1 [14-13] | < 50 nM | < 10 nM |
| O=C(C(O)c1cccc(Oc2cccc(C(F)(F)F)c2)c1)N1CCc2nc(C3(c4ccccc4)CC3)[nH]c(=O)c2C1 (centres unmarked) [14-14] | < 50 nM |  |
| O=C(C(O)c1cccc(C2CC2)c1)N1CCc2nc(C3(c4cccc(Cl)c4)CC3)[nH]c(=O)c2C1 (centres unmarked) [14-15] | < 50 nM |  |
| CC(C)c1cccc(C(O)C(=O)N2CCc3nc(C4(c5cccc(Cl)c5)CC4)[nH]c(=O)c3C2)c1 (centres unmarked) [14-16] | < 50 nM |  |
| O=C(C(O)c1cccc(S(F)(F)(F)(F)F)c1)N1CCc2nc(C3(c4cccc(Cl)c4)CC3)[nH]c(=O)c2C1 (centres unmarked) [14-17] | < 50 nM |  |
| O=C(C(O)c1cccc(SC(F)(F)F)c1)N1CCc2nc(C3(c4cccc(Cl)c4)CC3)[nH]c(=O)c2C1 (centres unmarked) [14-18] | < 50 nM |  |
| O=C(C(O)c1cccc(-c2cccc(F)c2)c1)N1CCc2nc(C3(c4cccc(F)c4)CC3)[nH]c(=O)c2C1 (centres unmarked) [14-19] | < 50 nM |  |
| O=C(C(O)c1cccc(C(F)(F)F)c1F)N1CCc2nc(C3(c4cccc(Cl)c4)CC3)[nH]c(=O)c2C1 (centres unmarked) [14-20] | < 50 nM |  |
| O=C(C(O)c1cccc(Oc2ccccc2)c1)N1CCc2nc(C3(c4cccc(Cl)c4)CC3)[nH]c(=O)c2C1 (centres unmarked) [14-21] | < 50 nM |  |
| CC(C)(C)c1cccc(C(O)C(=O)N2CCc3nc(C4(c5cccc(F)c5)CC4)[nH]c(=O)c3C2)c1 (centres unmarked) [14-22] | < 50 nM |  |

| Structure (SMILES) | IC50 [1] | IC50 [2] |
| --- | --- | --- |
| O=C(C(O)c1cccc(S(F)(F)(F)(F)F)c1)N1CCc2nc(C3(c4cccc(F)c4)CC3)[nH]c(=O)c2C1 (centres unmarked) [14-23] | < 50 nM |  |
| O=C(C(O)c1cccc(-c2ccc(Cl)cc2)c1)N1CCc2nc(C3(c4cccc(F)c4)CC3)[nH]c(=O)c2C1 (centres unmarked) [14-24] | < 50 nM |  |
| O=C(C(O)c1cccc(SC(F)(F)F)c1)N1CCc2nc(C3(c4ccccc4)CC3)[nH]c(=O)c2C1 (centres unmarked) [14-25] | < 50 nM |  |
| O=C([C@H](O)c1cccc(Cl)c1)N1CCc2nc(C3(c4cccc(Br)c4)CC3)[nH]c(=O)c2C1 [14-26] | < 50 nM |  |
| O=C(C(O)c1cccc(SC(F)(F)F)c1)N1CCc2nc(C3(c4cccc(F)c4)CC3)[nH]c(=O)c2C1 (centres unmarked) [14-27] | < 50 nM |  |
| O=C(C(O)c1cccc(Cl)c1F)N1CCc2nc(C3(c4cccc(Cl)c4)CC3)[nH]c(=O)c2C1 (centres unmarked) [14-28] | < 50 nM |  |
| O=C(C(O)c1cccc(C(F)(F)F)c1F)N1CCc2nc(C3(c4cccc(F)c4)CC3)[nH]c(=O)c2C1 (centres unmarked) [14-29] | < 50 nM |  |
| CC(C)(C)c1cccc(C(O)C(=O)N2CCc3nc(C4(c5ccccc5)CC4)[nH]c(=O)c3C2)c1 (centres unmarked) [14-30] | < 50 nM |  |
| O=C(C(O)c1cccc(S(F)(F)(F)(F)F)c1)N1CCc2nc(C3(c4ccccc4)CC3)[nH]c(=O)c2C1 (centres unmarked) [14-31] | < 50 nM |  |
| CC(C)c1cccc(C(O)C(=O)N2CCc3nc(C4(c5cccc(F)c5)CC4)[nH]c(=O)c3C2)c1 (centres unmarked) [14-32] | < 50 nM |  |
| O=C(C(O)c1cccc(OCc2ccccc2)c1)N1CCc2nc(C3(c4cccc(Cl)c4)CC3)[nH]c(=O)c2C1 (centres unmarked) [14-106] | < 50 nM | < 10 nM |
| CC(C)c1cccc(C2(c3nc4c(c(=O)[nH]3)CN(C(=O)C(O)c3cccc(C(C)(C)C)c3)CC4)CC2)c1 (centres unmarked) [14-107] | < 50 nM | < 10 nM |
| CC(C)c1cccc(C2(c3nc4c(c(=O)[nH]3)CN(C(=O)C(O)c3cccc(C(F)(F)F)c3F)CC4)CC2)c1 (centres unmarked) [14-109] | < 50 nM | < 10 nM |
| CC(C)c1cccc(C2(c3nc4c(c(=O)[nH]3)CN(C(=O)C(O)c3cccc(Cl)c3F)CC4)CC2)c1 (centres unmarked) [14-110] | < 50 nM | < 10 nM |
| O=C(C(O)c1cccc(OCc2ccccc2)c1)N1CCc2nc(C3(c4ccccc4)CC3)[nH]c(=O)c2C1 (centres unmarked) [14-111] | < 50 nM |  |
| O=C(Cc1cccc(-c2cccc(Cl)c2)c1)N1CCc2nc(C3(c4cccc(Cl)c4)CC3)[nH]c(=O)c2C1 [14-114] | < 50 nM |  |
| N#Cc1ccc(-c2cccc(CC(=O)N3CCc4nc(C5(c6cccc(Cl)c6)CC5)[nH]c(=O)c4C3)c2)cc1 [14-115] | < 50 nM |  |
| CC(C)(C)c1ccc(-c2cccc(CC(=O)N3CCc4nc(C5(c6cccc(Cl)c6)CC5)[nH]c(=O)c4C3)c2)cc1 [14-116] | < 50 nM |  |
| O=C(Cc1cccc(-c2ccc(C(F)(F)F)cc2)c1)N1CCc2nc(C3(c4cccc(Cl)c4)CC3)[nH]c(=O)c2C1 [14-117] | < 50 nM |  |
| O=C(Cc1cccc(-c2ccc(OC(F)(F)F)cc2)c1)N1CCc2nc(C3(c4cccc(Cl)c4)CC3)[nH]c(=O)c2C1 [14-118] | < 50 nM |  |

| Structure (SMILES) | IC50 [1] | IC50 [2] |
| --- | --- | --- |
| O=C(Cc1cccc(-c2ccc(Cl)cc2)c1)N1CCc2nc(C3(c4cccc(Cl)c4)CC3)[nH]c(=O)c2C1 [14-119] | < 50 nM |  |
| O=C(Cc1cccc(-c2coc3ccccc23)c1)N1CCc2nc(C3(c4cccc(Cl)c4)CC3)[nH]c(=O)c2C1 [14-120] | < 50 nM |  |
| N#Cc1cc(Cl)cc(-c2cccc(CC(=O)N3CCc4nc(C5(c6cccc(Cl)c6)CC5)[nH]c(=O)c4C3)c2)c1 [14-121] | < 50 nM |  |
| O=C(Cc1cccc(-c2cccc(C(F)(F)F)c2)c1)N1CCc2nc(C3(c4cccc(Cl)c4)CC3)[nH]c(=O)c2C1 [14-122] | < 50 nM | < 10 nM |
| O=C([C@H](O)c1cccc(C(F)(F)F)c1)N1CCc2nc(C3(c4cc(C5CCCC5)cs4)CC3)[nH]c(=O)c2C1 [15-1] | < 50 nM | < 3 nM |
| CC(C)c1csc(C2(c3nc4c(c(=O)[nH]3)CN(C(=O)[C@H](O)c3cccc(C(F)(F)F)c3)CC4)CC2)c1 [15-2] | < 50 nM | < 3 nM |
| O=C([C@H](O)c1cccc(C(F)(F)F)c1)N1CCc2nc(C3(c4cc(C5CCCCCC5)cs4)CC3)[nH]c(=O)c2C1 [15-3] | < 50 nM | < 3 nM |
| O=C([C@H](O)c1cccc(C(F)(F)F)c1)N1CCc2nc(C3(c4cc(C5CCCCC5)cs4)CC3)[nH]c(=O)c2C1 [15-4] | < 50 nM | < 3 nM |
| CCc1csc(C2(c3nc4c(c(=O)[nH]3)CN(C(=O)[C@H](O)c3cccc(C(F)(F)F)c3)CC4)CC2)c1 [15-5] | < 50 nM | < 10 nM |
| O=C(C(O)c1cccc(-c2cccc(C(F)(F)F)c2)c1)N1CCc2nc(C3(c4cccs4)CC3)[nH]c(=O)c2C1 (centres unmarked) [15-6] | < 50 nM | < 10 nM |
| O=C([C@H](O)c1cccc(Cl)c1)N1CCc2nc(C3(c4cc(C5CCCCC5)cs4)CC3)[nH]c(=O)c2C1 [15-7] | < 50 nM | < 10 nM |
| CC(C)c1csc(C2(c3nc4c(c(=O)[nH]3)CN(C(=O)[C@H](O)c3cccc(Cl)c3)CC4)CC2)c1 [15-8] | < 50 nM | < 10 nM |
| O=C([C@H](O)c1cccc(C(F)(F)F)c1)N1CCc2nc(C3(c4cc(Br)cs4)CC3)[nH]c(=O)c2C1 [15-9] | < 50 nM | < 10 nM |
| O=C(C(O)c1cccc(-c2ccc(Cl)cc2)c1)N1CCc2nc(C3(c4cccs4)CC3)[nH]c(=O)c2C1 (centres unmarked) [15-10] | < 50 nM |  |
| O=C(C(O)c1cccc(-c2cccc(F)c2)c1)N1CCc2nc(C3(c4cccs4)CC3)[nH]c(=O)c2C1 (centres unmarked) [15-11] | < 50 nM |  |
| O=C(C(O)c1cccc(SC(F)(F)F)c1)N1CCc2nc(C3(c4cccs4)CC3)[nH]c(=O)c2C1 (centres unmarked) [15-12] | < 50 nM |  |
| O=C(C(O)c1cccc(S(F)(F)(F)(F)F)c1)N1CCc2nc(C3(c4cccs4)CC3)[nH]c(=O)c2C1 (centres unmarked) [15-13] | < 50 nM |  |
| O=C([C@H](O)c1cccc(Cl)c1)N1CCc2nc(C3(c4cc(Cl)cs4)CC3)[nH]c(=O)c2C1 [15-14] | < 50 nM |  |
